Several values for one entry are separate records, joined by “and”; a condition that tells them apart may be missing. Equal entries are not always repeated.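 How tested: cells in 96-well plates exposed to compound for 48 hours at five concentrations. At the GI50, growth is halved. TGI: total growth inhibition.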
Assays:
Assay in all cases: DTP human tumour cell line panel, 48 h
[1] = tested on: NCI/ADR-RES ovarian
[2] = tested on: U251 CNS
[3] = tested on: LOX IMVI melanoma
[4] = tested on: HT29 colon
[5] = tested on: SN12C renal
[6] = tested on: UO-31 renal
[7] = tested on: SK-MEL-5 melanoma
[8] = tested on: UACC-62 melanoma
[9] = tested on: SR leukemia
[10] = tested on: TK-10 renal

Structure (SMILES) | TGI [1] [µM] | TGI [2] | TGI [3] | TGI [4] | TGI [5] | TGI [6] [µM] | TGI [7] | TGI [8] | TGI [9] | TGI [10] | GI50 [1] [µM] | GI50 [2] [µM] | GI50 [3] [µM] | GI50 [4] [µM] | GI50 [5] [µM] | GI50 [7] [µM] | GI50 [8] [µM] | GI50 [9] [µM] | GI50 [10] [µM]
O=c1[nH]c(=O)n(C2CC(O)C(CO)O2)cc1OCc1ccccc1 (centres undefined) | > 100 | > 100 µM | > 100 µM | > 100 µM | > 100 µM | > 100 | > 100 µM | > 100 µM | > 100 µM | > 100 µM | – | – | – | – | – | – | – | – | –
O=C(N/N=C/c1ccc(Br)cc1)N/N=C/c1ccc(Br)cc1 | 29.6 | 18.5 µM | > 100 µM | 26 µM | 17.4 µM | 30.5 | 31.6 µM | 41.2 µM | 17.7 µM | 5.39 µM | – | – | – | – | – | – | – | – | –
C=C(CN(C)C)C(=O)c1ccccc1[N+](=O)[O-] | 48.9 | 54.5 µM and 31.8 µM | 15 µM and 15.5 µM | 39.1 µM and 16.1 µM | 32.6 µM and 24.7 µM | 32.2 | 33.4 µM and 39.6 µM | 32.9 µM and 31.1 µM | > 33.3 µM and 5.74 µM | 34.3 µM and 26.3 µM | 5.61 | 17.8 | 3.98 | 3.31 | 3.74 | 16.9 | 13.1 | 1.65 | 12.9
COc1cc2c(cc1OC)-c1cc3ccccc3c(=O)n1CC2 | > 100 | 97.9 µM | 27.5 µM | 98.9 µM | > 100 µM | > 100 | 23.5 µM | 39 µM | 96.8 µM | 50.7 µM | – | – | – | – | – | – | – | – | –
O=C1c2ccccc2NC(=S)[C@@H]2CCCN12 | > 100 | > 100 µM | > 100 µM | > 100 µM | > 100 µM | > 100 | > 100 µM | > 100 µM | > 100 µM | > 100 µM | – | – | – | – | – | – | – | – | –
COc1ccc(CC2COc3cc(O)cc(O)c3C2=O)cc1O (centres undefined) | 8.78 | > 100 µM | > 100 µM | 27.5 µM | > 100 µM | > 100 | > 100 µM | > 100 µM | > 100 µM | > 100 µM | – | – | – | – | – | – | – | – | –
CC(=O)c1ccc2c(c1)CC1(C2)Cc2ccccc2C1=O (centres undefined) | 75.6 | > 100 µM | > 100 µM | 43.8 µM | > 100 µM | > 100 | 65.3 µM | > 100 µM | > 100 µM | 91.4 µM | – | – | – | – | – | – | – | – | –
CCOC(=O)C#Cc1ccccc1 | > 100 | 25.9 µM | 14.9 µM | 21.4 µM | 80.1 µM | 2.11 | 17.4 µM | 32.5 µM | 4.76 µM | 59.9 µM | – | – | – | – | – | – | – | – | –
COc1nc(C#CC(C)(C)C)nc(OC)n1 | 46.1 | > 100 µM | 61.4 µM | > 100 µM | 79 µM | > 100 | 39 µM | 42 µM | 79.3 µM | 57.8 µM | – | – | – | – | – | – | – | – | –
CC12CCCC3(CC(=O)C(C)(C)C3C(=O)C1)C2 (centres undefined) | > 100 | > 100 µM | > 100 µM | > 100 µM | > 100 µM | > 100 | > 100 µM | > 100 µM | > 100 µM | > 100 µM | – | – | – | – | – | – | – | – | –
C[n+]1c(-c2ccc(/C=C/C=N\NC(=O)c3ccc(C(=O)N/N=C\C=C\c4ccc(-c5cn6ccccc6[n+]5C)cc4)cc3)cc2)cn2ccccc21 | > 100 | > 100 µM | > 100 µM | > 100 µM | > 100 µM | > 100 | > 100 µM | > 100 µM | 42.3 µM | > 100 µM | – | – | – | – | – | – | – | – | –
O=C(c1ccncc1)C1C(=O)c2ccccc2C1C1(O)c2ccccc2CC1C(O)c1ccncc1 (centres undefined) | > 100 | > 100 µM | > 100 µM | > 100 µM | > 100 µM | 29 | > 100 µM | 48.7 µM | > 100 µM | > 100 µM | – | – | – | – | – | – | – | – | –
O=c1cc(-c2ccccc2)oc2c(-c3cc(Cl)cc4c(=O)cc(-c5ccccc5)oc34)cc(Cl)cc12 | > 100 | > 100 µM | > 100 µM | > 100 µM | > 100 µM | 60.4 | 32.8 µM | 48.4 µM | > 100 µM | > 100 µM | – | – | – | – | – | – | – | – | –
S=c1cc(-c2ccc3c(c2)OCO3)s[nH]1 | > 100 | > 100 µM | > 100 µM | > 100 µM | > 100 µM | > 100 | > 100 µM | > 100 µM | > 100 µM | > 100 µM | – | – | – | – | – | – | – | – | –
COc1ccc(-c2cc(-c3ccccc3)[nH]c(=S)c2C#N)cc1 | > 100 | 54.4 µM | > 100 µM | > 100 µM | > 100 µM | 45.7 | 34.3 µM | 46.2 µM | > 100 µM | > 100 µM | – | – | – | – | – | – | – | – | –
CC(C(=O)O)C(C)(O)C(=O)O (centres undefined) | > 100 | > 100 µM | > 100 µM | > 100 µM | > 100 µM | > 100 | > 100 µM | > 100 µM | > 100 µM | > 100 µM | – | – | – | – | – | – | – | – | –
O=c1[nH]c(Nc2cccc(CO)c2)nc2nc[nH]c12 | > 100 | > 100 µM | > 100 µM | > 100 µM | > 100 µM | > 100 | > 100 µM | > 100 µM | > 100 µM | > 100 µM | – | – | – | – | – | – | – | – | –
Cc1ccc(/C=C2\Cc3c(C)cc(C)cc3C2=O)c(C(=O)O)c1 | > 100 | > 100 µM | 48.9 µM | > 100 µM | > 100 µM | > 100 | 85.2 µM | > 100 µM | 68.7 µM | > 100 µM | – | – | – | – | – | – | – | – | –
CCOC(=O)c1cn2c(n1)sc1cc(Cl)cc(Cl)c12 | > 100 | > 100 µM | > 100 µM | > 100 µM | > 100 µM | > 100 | > 100 µM | > 100 µM | > 100 µM | > 100 µM | – | – | – | – | – | – | – | – | –
COc1c(O)c2c(=O)cc(OC)c3c4c(OC)cc(=O)c5c(O)c(OC)c6c(c(c1C(C(C)O)C6C(C)O)c23)c54 (centres undefined) | 3.66 | 11.3 µM | 3.08 µM | 3.71 µM | 3.17 µM | 2.3 | 1.15 µM | 3.54 µM | 5.37 µM | 4.66 µM | – | – | – | – | – | – | – | – | –

From PubChem BioAssay (NCI)
